For the assay, the target named is GTPase KRas (Homo sapiens, UniProt P01116). Description: Inhibition of GDP bound KRAS G12V mutant (unknown origin).

Drawing on BindingDB's records for PubMed 39140043 (Usona Institute), this text covers IC50 for one compound.

Chain of GTPase KRas (P01116 whole entry G12V): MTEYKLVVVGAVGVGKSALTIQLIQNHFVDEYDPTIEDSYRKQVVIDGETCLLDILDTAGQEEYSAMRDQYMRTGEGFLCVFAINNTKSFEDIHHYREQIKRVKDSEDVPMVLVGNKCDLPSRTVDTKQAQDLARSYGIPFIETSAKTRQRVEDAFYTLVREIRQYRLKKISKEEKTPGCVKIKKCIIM

As to `C#Cc1c(F)ccc2cc(O)cc(-c3ncc4c(N(C)[C@H]5C[C@@H]5F)nc(OCC56CCCN5CC(=C)C6)nc4c3F)c12` (stereo partly specified), it took 0.371 nM to reach half-maximal inhibition (IC50).
